Laboratory results taken from patent US20180273579A1, “COMPOUNDS WITH HIV MATURATION INHIBITORY ACTIVITY” (priority 2015, published 2018).
Where a name gives a salt, the structure may show the parent alone.

Assays:
NL4-3 wt = assay: MT4 Cell Antiviral Assay (NL4-3 wt); assay type: cell-based, HIV-1; conditions: Human immunodeficiency virus 1, NL43, HIV MT4 Antiviral Cell Assay
V370A = assay: MT4 Cell Antiviral Assay (V370A); assay type: cell-based, HIV-1; conditions: Human immunodeficiency virus 1, MT4, read-out: EC50 V370A (nM)
HIV = conditions: cited from earlier work
HIV-1 (strain IIIB) = assay: MT4 Cell Antiviral Assay (general statement, control); assay type: cell-based; conditions: Human immunodeficiency virus 1, IIIB, control and standard in every assay, propidium iodide readout, read-out: expected range of IC50 values
Description: Antiviral HIV activity and compound-induced cytotoxicity were measured in parallel by means of a propidium iodide based procedure in the human T-cell lymphotropic virus transformed cell line MT4. Aliquots of the test compounds were serially diluted in medium (RPMI 1640, 10% fetal calf serum (FCS), and gentamycin) in 96-well plates (Costar 3598) using a Cetus Pro/Pette. Exponentially growing MT4 cells were harvested and centrifuged at 1000 rpm for 10 min in a Jouan centrifuge (model CR 4 12). Cell pellets were resuspended in fresh medium (RPMI 1640, 20% FCS, 20% IL-2, and gentamycin) to a density of 5×10^5 cells/ml. […]
For propidium iodide readout, 27 μl of 5% Nonidet-40 was added to each well of the incubation plate. […] The plates were analyzed in an automated assay instrument (Screen Machine, Idexx Laboratories). […]
For MTS readout, 20 μl CellTiter 96 AQ One Solution reagent (Promega #G3582) was added to each well. At 75 minutes following the addition of MTS reagent, absobance was read at 492 nm using a Tecan Sunrise 96-well plate reader. […]
For each assay plate, the results (relative fluorescence units, rfU, or OD values) of wells containing uninfected cells or infected cells with no compound were averaged, respectively. […] Percent of cells remaining is determined by the following formula: […]

Structure (SMILES) | EC50 (NL4-3 wt) [nM] | EC50 (V370A) [nM] | reduced HIV viral load, mean (HIV; patients with trough levels >=20 μg/mL and without key baseline Gag polymorphisms at Q369, V370 or T371) [log10/mL] | viral load reduction (HIV; users with Gag polymorphisms at Q369, V370 or T371, versus patients without them) | IC50 (HIV-1 (strain IIIB)) [nM]
CC(C)C1=C2[C@H]3CC[C@@H]4[C@@]5(C)CC=C(c6ccc(C(=O)O)cc6)C(C)(C)[C@@H]5CC[C@@]4(C)[C@]3(C)CC[C@@]2(C(=O)N(CCN(C)C)[C@H](C)c2ccc(Cl)cc2)CC1=O [Example 7, 4-((3aR,5aR,5bR,7aR,11aS,11bR,13aS)-3a-(((R)-1-(4-Chlorophenyl)ethyl) (2-(dimethylamino)ethyl)carbamoyl)-1-isopropyl-5a,5b,8,8,11a-pentamethyl-2-oxo-3,3a,4,5,5a,5b,6,7,7a,8,11,11a,11b,12,13,13a-hexadecahydro-2H-cyclopenta[a]chrysen-9-yl)benzoic acid hydrochloride] | 8.5 | 8.9 |  |  | 
C=C(C)[C@@H]1CC[C@]2(C(=O)O)CC[C@]3(C)[C@H](CC[C@@H]4[C@@]5(C)CC[C@H](OC(=O)CC(C)(C)C(=O)O)C(C)(C)[C@@H]5CC[C@]43C)[C@@H]12 [Bevirimat] |  |  | 1.3 | significantly lower load reductions | 
CC(C)C1=C2[C@H]3CC[C@@H]4[C@@]5(C)CC=C(C6=CCC(C(=O)O)CC6)C(C)(C)[C@@H]5CC[C@@]4(C)[C@]3(C)CC[C@@]2(C(=O)NCCN2CCC(S(C)(=O)=O)CC2)CC1=O (stereo partly drawn) [Example 1, 4-((3aR,5aR,5bR,7aR,11aS,11bR,13aS)-1-Isopropyl-5a,5b,8,8,11a-pentamethyl-3a-((2-(4-(methylsulfonyl)piperidin-1-yl)ethyl)carbamoyl)-2-oxo-3,3a,4,5,5a,5b,6,7,7a,8,11,11a,11b,12,13,13a-hexadecahydro-2H-cyclopenta[a]chrysen-9-yl)cyclohex-3-enecarboxylic acid] | > 23900 | > 25000 |  |  | 
CC(C)C1=C2[C@H]3CC[C@@H]4[C@@]5(C)CC=C(C6=CCC(C(=O)O)CC6)C(C)(C)[C@@H]5CC[C@@]4(C)[C@]3(C)CC[C@@]2(C(=O)N(CCN(C)C)[C@H](C)c2ccc(Cl)cc2)CC1=O (stereo partly drawn) [Example 5, 4-((3aR,5aR,5bR,7aR,11aS,11bR,13aS)-3a-(((R)-1-(4-Chlorophenyl)ethyl) (2-(dimethylamino)ethyl)carbamoyl)-1-isopropyl-5a,5b,8,8,11a-pentamethyl-2-oxo-3,3a,4,5,5a,5b,6,7,7a,8,11,11a,11b,12,13,13a-hexadecahydro-2H-cyclopenta[a]chrysen-9-yl)cyclohex-3-enecarboxylic acid] | 7.6 | 9.5 |  |  | 
CC(C)C1=C2[C@H]3CC[C@@H]4[C@@]5(C)CC=C(c6ccc(C(=O)O)cc6)C(C)(C)[C@@H]5CC[C@@]4(C)[C@]3(C)CC[C@@]2(C(=O)N(CCN(C)C)Cc2ccc(Cl)cc2)CC1=O [Example 8, 4-((3aR,5aR,5bR,7aR,11aS,11bR,13aS)-3a-((4-Chlorobenzyl) (2-(dimethylamino)ethyl)carbamoyl)-1-isopropyl-5a,5b,8,8,11a-pentamethyl-2-oxo-3,3a,4,5,5a,5b,6,7,7a,8,11,11a,11b,12,13,13a-hexadecahydro-2H-cyclopenta[a]chrysen-9-yl)benzoic acid hydrochloride] | 28.8 | 64.6 |  |  | 
CC(C)C1=C2[C@H]3CC[C@@H]4[C@@]5(C)CC=C(C6=CCC(C(=O)O)CC6)C(C)(C)[C@@H]5CC[C@@]4(C)[C@]3(C)CC[C@@]2(C(=O)NCCN2CCS(=O)(=O)CC2)CC1=O (stereo partly drawn) [Example 2, 4-((3aR,5aR,5bR,7aR,11aS,11bR,13aS)-3a-((2-(1,1-Dioxidothiomorpholino)ethyl)carbamoyl)-1-isopropyl-5a,5b,8,8,11a-pentamethyl-2-oxo-3,3a,4,5,5a,5b,6,7,7a,8,11,11a,11b,12,13,13a-hexadecahydro-2H-cyclopenta[a]chrysen-9-yl)cyclohex-3-enecarboxylic acid] | 3390 | > 25000 |  |  | 
Cc1cn([C@H]2C[C@H](N=[N+]=[N-])[C@@H](CO)O2)c(=O)[nH]c1=O [3′-azido-3′-deoxythymidine] |  |  |  |  | 40 to 120
CC(C)C1=C2[C@H]3CC[C@@H]4[C@@]5(C)CC=C(C6=CCC(C(=O)O)CC6)C(C)(C)[C@@H]5CC[C@@]4(C)[C@]3(C)CC[C@@]2(C(=O)N(CCN(C)C)Cc2ccc(Cl)cc2)CC1=O (stereo partly drawn) [Example 6, 4-((3aR,5aR,5bR,7aR,11aS,11bR,13aS)-3a-((4-Chlorobenzyl) (2-(dimethylamino)ethyl)carbamoyl)-1-isopropyl-5a,5b,8,8,11a-pentamethyl-2-oxo-3,3a,4,5,5a,5b,6,7,7a,8,11,11a,11b,12,13,13a-hexadecahydro-2H-cyclopenta[a]chrysen-9-yl)cyclohex-3-enecarboxylic acid] | 11.2 | 14.1 |  |  | 
